For the test, the system named is CWR22Pc cells. Put plainly: RNA-seq transcriptome, IST5 vs. genetic Stat5 knockdown. In kind it is cell-based, human. Conditions: 3 days. From the text:
In order to evaluate the potential of IST5 for further optimization for clinical development, we compared the IST5-induced transcriptome to that of Stat5 genetic knockdown in PC cells. Stat5 expression was inhibited by lenti-viral expression of shStat5 or shCtrl in CWR22Pc cells for 3 days (Figure 2A). CWR22Pc cells were chosen as the model system because the cell line expresses both Stat5 and androgen receptor and mimics the course of disease progression in PC patient. When grown in mice as xenograft tumors, CWR22Pc cells form androgen-dependent tumors which regress in response to androgen deprivation but later recur as Castrate-Resistant Prostate Cancer (CRPC) tumors. In parallel wells, CWR22Pc cells were treated with IST5 or vehicle for 3 days. We performed RNA-seq to profile the gene expression changes and received an average of 22.4 million paired-end clean reads from each sample (Table S5). […] Most importantly, the similarity between the transcriptomes regulated by shStat5 vs. IST5 was remarkably high, with Pearson correlation coefficient ranging from 0.98–0.99 (Figure 2C).
Figure 2 IST5 show high transcriptional specificity in prostate cancer cells. […]
Total RNA of each replicate sample was isolated using RNeasy Micro Kit (QIAGEN, Valencia, CA, USA) and reverse transcribed with Super-Script III Reverse Transcriptase (Life Technologies, Brown Deer, WI, USA) following the manufacturer’s instructions. […] RNA quality was assessed by Agilent Bioanalyzer 2100 (Agilent, Santa Clara, CA, USA), and RNA integrity number (RIN) ≥7.5 was qualified for subsequent RNA-seq analysis.
We performed RNA-seq to evaluate the transcriptomes regulated by IST5 vs. genetic knockdown (lenti-shStat5) of Stat5 with corresponding controls (vehicle or lenti-shCtrl). […] Sequencing data (fastq files) were quantified with a software tool Salmon (version 1.1.0). […] Transcripts with less than 10 median read-counts were filtered out. […] Statistical significance was determined at a FDR threshold <0.01. […]

The mark [1] stands for this setting: 6 µM, FDR <0.01, fold change >2 or <−2.

Molecules are shown by their SMILES.

The results in this text go back to PMC7724566, “Prospects for Clinical Development of Stat5 Inhibitor IST5-002: High Transcriptomic Specificity in Prostate Cancer and Low Toxicity In Vivo” (Cancers, 2020).

Under setting [1], `O=P(O)(O)OCC1OC(n2cnc3c(NCc4ccccc4)ncnc32)C(O)C1O` (stereo not drawn) [IST5] had a transcripts down-regulated of 765 and a transcripts upregulated of 324. In addition, the “Pearson correlation coefficient of transcriptomes regulated by shStat5 vs. IST5” value (IST5 6 µM) is 0.98–0.99.
